Values of other authors as cited in patent US20210212947A1, “Docetaxel palmitate liposome and preparation method thereof” (SHANGHAI WEI ER BIOPHARMACEUTICAL TECH CO., LTD., priority 2018, published 2021).

Tests used:
[1] = times that of paclitaxel

## CC(=O)OC12COC1CC(O)C1(C)C(=O)C(O)C3=C(C)C(OC(=O)C(O)C(NC(=O)OC(C)(C)C)c4ccccc4)CC(O)(C(OC(=O)c4ccccc4)C21)C3(C)C (stereo not drawn) [Docetaxel, [2aR-(2aα,4β,4aβ,6β,9α(aR*,βS*),11a,12a,12aα,12bα)]-β-[[(1,1dimethylethyl (Oxy)carbonyl]amino]-α-hydroxyphenylpropionic acid [12b-acetoxy-12-benzoyloxy-2a,3,4,4a,5,6,9,10,11,12,12a,12b -Dodecahydro-4,6,11-trihydroxy-4a,8,13,13-tetramethyl-5-oxo-7,11-methylene-1H-cyclodecpentaeno [3,4]Benzo [1,2-b]oxetane-9-yl]ester]
[1]
  anti-tumor activity relative to paclitaxel: 1.3-12 times
Organic solvents such as ethanol, acetone, ether and benzene
  solubility in organic solvents: soluble
water
  solubility in water: insoluble
